Laboratory results taken from publication PMC6934184, “Selective DNA-PKcs inhibition extends the therapeutic index of localized radiotherapy and chemotherapy” (The Journal of Clinical Investigation, 2019).

Target: T1, RET M918T (Homo sapiens, UniProt P07949, M918T)
T1 construct: purchased Thermo Fisher Scientific (Life Technologies) SelectScreen
Experiment: SelectScreen LanthaScreen
Type: binding
Settings: read-out: % displacement
Procedure, shortened: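 Percent values come from Thermo SelectScreen profiling of NU5455, combining activity and binding assays. CSF1R was run in Z'LYTE format at Km app ATP, and CAMK1 in Adapta format with ATP listed at 10.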

T1 sequence (P07949 29-1114 M918T): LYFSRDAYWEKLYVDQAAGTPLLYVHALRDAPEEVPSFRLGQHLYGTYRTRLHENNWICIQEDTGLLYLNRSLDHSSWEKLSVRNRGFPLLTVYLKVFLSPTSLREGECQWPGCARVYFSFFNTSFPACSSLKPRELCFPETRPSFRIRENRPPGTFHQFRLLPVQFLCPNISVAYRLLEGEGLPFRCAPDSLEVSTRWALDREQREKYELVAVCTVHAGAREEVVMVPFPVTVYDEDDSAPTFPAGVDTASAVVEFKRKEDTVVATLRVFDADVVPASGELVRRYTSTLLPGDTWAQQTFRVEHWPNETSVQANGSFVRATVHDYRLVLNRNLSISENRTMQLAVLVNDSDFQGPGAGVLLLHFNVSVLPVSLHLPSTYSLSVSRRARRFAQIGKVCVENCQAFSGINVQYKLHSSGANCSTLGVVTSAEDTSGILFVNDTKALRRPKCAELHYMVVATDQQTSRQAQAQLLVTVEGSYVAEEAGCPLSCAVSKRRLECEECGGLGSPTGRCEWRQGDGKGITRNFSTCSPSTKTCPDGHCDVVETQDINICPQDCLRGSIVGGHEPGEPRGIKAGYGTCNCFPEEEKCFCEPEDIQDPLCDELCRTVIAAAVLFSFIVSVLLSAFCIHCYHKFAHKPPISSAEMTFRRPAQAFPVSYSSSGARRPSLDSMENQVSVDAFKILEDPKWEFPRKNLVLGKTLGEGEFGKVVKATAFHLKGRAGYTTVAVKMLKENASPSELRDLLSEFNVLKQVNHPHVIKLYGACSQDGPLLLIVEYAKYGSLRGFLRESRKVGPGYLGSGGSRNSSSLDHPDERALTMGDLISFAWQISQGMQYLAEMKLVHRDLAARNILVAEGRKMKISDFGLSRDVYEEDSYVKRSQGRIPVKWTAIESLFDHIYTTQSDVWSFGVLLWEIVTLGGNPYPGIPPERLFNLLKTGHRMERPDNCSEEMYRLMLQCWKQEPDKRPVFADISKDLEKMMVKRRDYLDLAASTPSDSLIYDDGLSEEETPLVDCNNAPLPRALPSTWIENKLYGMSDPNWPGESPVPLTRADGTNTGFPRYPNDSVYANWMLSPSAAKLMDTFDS

CN(C(=O)CN1CCOCC1)c1ccc2sc3c(-c4cccc5c(=O)cc(N6CC7CCC(C6)O7)oc45)cccc3c2c1 [NU5455]
inhibition at 1 µM: -3.5%
